From patent US20230277632A1, “MODIFIED PlySs2 LYSINS AND ANTIBIOTIC COMBINATIONS FOR USE AGAINST GRAM-POSITIVE BACTERIA” (ContraFect Corporation, priority 2020, published 2023)
In brackets after ≈: the same amount, converted by molar mass. Several values for one entry are separate records, joined by “and”; a condition that tells them apart may be missing. Identical values can stand only once.

Legend:
S. aureus isolates [1] = assay: MIC determination (broth microdilution) against 8 S. aureus isolates; type: cell-based; conditions: CAMHB Ca^2+, unit assumed
Procedure: Suitable methods for assessing the activity of a modified lysin polypeptide as disclosed herein are well known in the art and described in the examples. […] For example, MIC values for a modified lysin polypeptide may be determined against e.g., laboratory Staphylococcus aureus strains, in e.g., Mueller-Hinton broth or Mueller-Hinton broth supplemented with serum, such as horse serum.
The pp296 MICs were determined based on (1) cation-adjusted Mueller-Hinton Broth with 25% horse serum and 0.5 mM DTT (caMHB-HSD); (2) human serum (100% serum); and (3) ICR mice (100% serum). Vancomycin and daptomycin MICs of the isolate strains were determined in accordance with the broth microdilution method as outlined by CLSI. Results of the MIC determination are shown below in Table 2. The bacterial isolates were frozen at −80° C. in skim milk.

S. aureus isolates [2] = assay: In vivo efficacy of daptomycin in combination with pp296, neutropenic murine thigh infection model; conditions: 24 h; for Replicate Log10 CFU/thigh data: daptomycin alone
Procedure: Study animals: Specific pathogen-free female ICR mice (average body weight 23 grams) were provided food and water ad libitum and maintained and used in accordance with National Research Council recommendations. Animals were allowed a 48-hour post-delivery acclimation period before every experiment. Mice were rendered transiently neutropenic by injection of cyclophosphamide via intraperitoneal (IP) route at a dose of 150 mg/kg of body weight at four days before bacterial inoculation and 100 mg/kg of body weight at one day before bacterial inoculation.
Neutropenic Thigh Infection Model: Two transfers of the bacterial isolates were performed onto trypticase soy agar plates with 5% sheep blood and placed into an incubator at 37° C. for approximately 24 hours. After an 18-24 hour incubation of the second transfer, a suspension of approximately 10^7 CFU/mL was made for inoculation. Final bacterial inoculum concentrations were confirmed by serial dilution and plating techniques. Thigh infection with the test isolate was produced by intramuscular injection of 0.1 mL of the bacterial inoculum into each thigh of the mice. Antimicrobial therapy was initiated 2 hours after bacterial inoculation, as detailed below.
Untreated control mice (n=3) were sacrificed just prior to antibiotic administration and 24 hours after bacterial inoculation. Animals sacrificed prior to antibiotic initiation served as 0-hour control animals, representing initial bacterial burden. […] Treatment mice (n=3/group) were sacrificed at the end of the 24 hour treatment period. After sacrifice, both thighs for each mouse were homogenized in normal saline. Serial dilutions were plated on Trypticase soy agar with 5% sheep blood and incubated for 18 to 20 hours at 37.0 to determine the CFU. Efficacy was calculated as the change in bacterial density obtained in treated mice after 24 hours compared with the numbers in the 0-hour control animals. Bacterial density represents the average CFU determined from 3 mice, each contributing 2 thighs.
For the 4 S. aureus isolates HPV107, CAIRD426, JMI227, and NRS123, the following sub-therapeutic daptomycin dosage regimen was adopted: 0.76 mg/kg at 0 hrs, 0.4 mg/kg at 4 hrs, 0.24 mg/kg at 10 hrs, and 0.12 mg/kg at 17 hrs.

S. aureus = assay: pp296 dose fractionation study, neutropenic murine thigh infection model; type: in vivo; conditions: sub-therapeutic daptomycin SC alone, 24 h
Procedure: Each of the pp296 TDDs was fractionated into three regimens, i.e., one-third of the entire dose was administered via IV three times (q8h); one-half of the entire does was administered via IV two times (q12h), or the entire dose was administered via IV once daily over a 24-hour period, for a total of three groups per each TDD.
Untreated control mice (n=3/group) were sacrificed just prior to antibiotic administration, as well as 24 hours later. Animals sacrificed prior to antibiotic administration served as 0-hour control animals, representing initial bacterial burden. The 24-hour control animals received sterile normal saline in the same volume and schedule as the most frequent active drug regimen. […] After the 24-hour treatment period, all animals were euthanized and thighs were cultured quantitatively as described above. The change in bacterial density was calculated for each of the dosing regimen. Comparisons were made between the different regimens of the same total daily dose on bacterial burdens at 24 hours using one-way Analysis of Variance (ANOVA) test followed by Tukey's test where the P value was 0.05.

CCCCCCCCCC(=O)N[C@@H](Cc1c[nH]c2ccccc12)C(=O)N[C@H](CC(N)=O)C(=O)N[C@@H](CC(=O)O)C(=O)N[C@@H]1C(=O)NCC(=O)N[C@@H](CCCN)C(=O)N[C@@H](CC(=O)O)C(=O)N[C@H](C)C(=O)N[C@@H](CC(=O)O)C(=O)NCC(=O)N[C@H](CO)C(=O)N[C@@H]([C@H](C)CC(=O)O)C(=O)N[C@@H](CC(=O)c2ccccc2N)C(=O)O[C@@H]1C [Daptomycin, daptomycin]
MIC Daptomycin (CAMHB Ca^2+) (S. aureus isolates [1]; ATCC 29213 MSSA): 1 µg/mL (≈ 0.617 µM) | MIC Daptomycin (CAMHB Ca^2+) (S. aureus isolates [1]; CAIRD426 MRSA): 1 µg/mL (≈ 0.617 µM) | MIC Daptomycin (CAMHB Ca^2+) (S. aureus isolates [1]; HPV107 MRSA): 0.5 µg/mL (≈ 0.309 µM) | MIC Daptomycin (CAMHB Ca^2+) (S. aureus isolates [1]; JMI227 MRSA): 0.5 µg/mL (≈ 0.309 µM) | MIC Daptomycin (CAMHB Ca^2+) (S. aureus isolates [1]; JMI4789 MRSA): 1 µg/mL (≈ 0.617 µM) | MIC Daptomycin (CAMHB Ca^2+) (S. aureus isolates [1]; NRS100 (COL) MRSA): 0.5 µg/mL (≈ 0.309 µM) | MIC Daptomycin (CAMHB Ca^2+) (S. aureus isolates [1]; NRS123 (MW2) MRSA): 1 µg/mL (≈ 0.617 µM) | MIC Daptomycin (CAMHB Ca^2+) (S. aureus isolates [1]; NRS271 MRSA/LRSA): 0.5 µg/mL (≈ 0.309 µM) | Replicate Log10 CFU/thigh data (S. aureus isolates [2]; isolate ATCC2921, 0.475/0.25/0.15/0.075 mg/kg at 0/4/10/17 hrs): 8.02 Log10 CFU/thigh and 8.04 Log10 CFU/thigh and 7.79 Log10 CFU/thigh and 8.03 Log10 CFU/thigh and 6.18 Log10 CFU/thigh and 7.38 Log10 CFU/thigh | Replicate Log10 CFU/thigh data (S. aureus isolates [2]; isolate CAIRD426, 0.76/0.4/0.24/0.12 mg/kg at 0/4/10/17 hrs): 8.16 Log10 CFU/thigh and 8.20 Log10 CFU/thigh and 7.59 Log10 CFU/thigh and 8.18 Log10 CFU/thigh and 7.47 Log10 CFU/thigh and 7.35 Log10 CFU/thigh | Replicate Log10 CFU/thigh data (S. aureus isolates [2]; isolate HPV107, 0.76/0.4/0.24/0.12 mg/kg at 0/4/10/17 hrs): 7.16 Log10 CFU/thigh and 7.34 Log10 CFU/thigh and 7.24 Log10 CFU/thigh and 7.08 Log10 CFU/thigh and 6.74 Log10 CFU/thigh and 5.77 Log10 CFU/thigh | Replicate Log10 CFU/thigh data (S. aureus isolates [2]; isolate JMI227, 0.76/0.4/0.24/0.12 mg/kg at 0/4/10/17 hrs): 5.93 Log10 CFU/thigh and 6.08 Log10 CFU/thigh and 6.48 Log10 CFU/thigh and 6.73 Log10 CFU/thigh and 6.86 Log10 CFU/thigh and 6.89 Log10 CFU/thigh | Replicate Log10 CFU/thigh data (S. aureus isolates [2]; isolate JMI4789, 0.475/0.25/0.15/0.075 mg/kg at 0/4/10/17 hrs): 8.00 Log10 CFU/thigh and 6.85 Log10 CFU/thigh and 8.63 Log10 CFU/thigh and 8.52 Log10 CFU/thigh and 8.14 Log10 CFU/thigh and 7.21 Log10 CFU/thigh | Replicate Log10 CFU/thigh data (S. aureus isolates [2]; isolate NRS100, 0.475/0.25/0.15/0.075 mg/kg at 0/4/10/17 hrs): 4.83 Log10 CFU/thigh and 5.29 Log10 CFU/thigh and 6.67 Log10 CFU/thigh and 7.76 Log10 CFU/thigh and 6.20 Log10 CFU/thigh and 7.09 Log10 CFU/thigh | Replicate Log10 CFU/thigh data (S. aureus isolates [2]; isolate NRS123, 0.76/0.4/0.24/0.12 mg/kg at 0/4/10/17 hrs): 6.73 Log10 CFU/thigh and 7.28 Log10 CFU/thigh and 6.86 Log10 CFU/thigh and 7.09 Log10 CFU/thigh and 5.81 Log10 CFU/thigh and 6.81 Log10 CFU/thigh | Replicate Log10 CFU/thigh data (S. aureus isolates [2]; isolate NRS217, 0.475/0.25/0.15/0.075 mg/kg at 0/4/10/17 hrs): 7.94 Log10 CFU/thigh and 7.84 Log10 CFU/thigh and 7.89 Log10 CFU/thigh and 7.92 Log10 CFU/thigh and 8.01 Log10 CFU/thigh and 8.02 Log10 CFU/thigh | average bacterial growth vs starting inoculum (S. aureus isolates [2]; sub-therapeutic daptomycin alone, 8 isolates): 1.47±0.80 log10 CFU/thigh | bacterial burden vs 0-hour control mice (S. aureus): 0.82±0.44 log10 CFU/thigh
